# Results published in patent EP0500426A1, “2,6-Dimethyl-4-(4'-hydroxy-3',5'-di-t-butylphenyl)-1,4-dihydropyridine derivatives, process for their preparation and their use as free radical scavengers” (Instituto de Investigacion Y Desarrollo Quimico-Biologico …, priority 1991, dated 1992).
# What was measured:
# radicaux libres = test: Free radical scavenger activity (test not specified)
# canaux calciques = conditions: see Spanish patent n°531.033; cited from earlier work
# [1] = system: membrane hépatique du rat; test: Free radical scavenging in rat liver membranes: lipid peroxidation induced by Fe++/ascorbic acid, thiobarbituric acid-reactive substances; assay type: biochemical; conditions: 45 minutes at 37°C, substances reacting with ATB, read-out: CI50 (the source's name)
# Experimental: Les composés de la présente invention ont fait l'objet d'un essai de contrôle de leur aptitude à capter les radicaux libres engendrés par la membrane hépatique du rat stimulée par du Fe++/acide ascorbique (système connu pour induire une formation de radicaux libres).
# 1.- Activité de captage des radicaux libres dans la membrane hépatique du rat.
# On a préparé des homogènats de foie de rat (1/10 p/v) dans du Ringer-Tris (50mM)-saccharose ([…]) de pH 7,4, après sacrifice de rats Wistar au moyen de CO2. On a découpé les foies en petits morceaux (1 à 2 mm) et on les a homogénéisés à 0°C dans un homogénéisateur Polytron. On a centrifugé les homogénats à 1000 x g pendant 10 minutes à 4°C et rejeté le culot. On a centrifugé le surnageant à 10 000 x g pendant 20 minutes et recueilli le culot, puis on l'a remis en suspension, dans le rapport 1/10, dans du Ringer-Tris (50 mM). On a utilisé des échantillons de la préparation immédiatement et on en a conservé à -20°C. […] Après 45 minutes à 37°C, on a ajouté 1 ml d'une solution contenant 0,5% d'acide thiobarbiturique (ATB) dans de l'acide trichloroacétique (ATC) à 20% dans chaque tube et après 15 minutes d'incubation à 95°C, on a déterminé par spectrophotométrie les substances réagissant avec l' A TB. On a réalisé pour toutes les expériences des témoins appropriés exempts du médicament.
# neutrophiles humains = test: Free radical production by FMLPA-stimulated human neutrophils (cytochrome C reduction); assay type: cell-based; conditions: Neutrophil, reduced cytochrome C at 550 nm, read-out: CI50 (the source's name)
# Source text: (§1) Les composés de la présente invention ont fait l'objet d'un essai de contrôle de leur aptitude à capter les radicaux libres engendrés par la membrane hépatique du rat stimulée par du Fe++/acide ascorbique (système connu pour induire une formation de radicaux libres). Les composés les plus actifs ont fait ensuite l'objet d'essais de contrôle de leur aptitude à inhiber la formation des radicaux libres par les neutrophiles humains stimulés par la N-formyl-L-méthionyl-L-leucyl-L-phénylalanine et à protéger le tissu hépatique, entretenu en culture, contre les lésions par ischémie/reperfusion.
# 2.- Dosage des radicaux libres dans les polymorphonucléaires.
# On a isolé des neutrophiles humains chez des donneurs volontaires bien portants par centrifugation sur gradient dans du Ficol Hypaque (Pharmacia). On a mélangé 100 µl de suspension de cellules (nombre final 500 000 cellules) avec 700 µl de solution physiologique tamponnée au phosphate et 50 µl des composés expérimentaux en solution dans du DMSO. On a utilisé comme témoin positif 25 µl d'une solution à 1 mg par ml de superoxyde dismutase dans du DMSO (à savoir 25 µg de SOD). On a préincubé les tubes à 37°C pendant 10 minutes sous agitation lente.
# On a stimulé les neutrophiles par addition de 100 µl de cytochrome C type VI (1 mM) (Sigma) dans de la solution physiologique tamponnée au phosphate, de 50 µl de N-formyl-L-méthionyl-L-leucyl-L-phénylalanine (FMPLA) (10 µM) (Sigma F 3506) et par incubation pendant 5 minutes à 37°C. Après refroidissement à 0°C pour arrêter la réaction, on a centrifugé les tubes à 8000 xg et on a déterminé par spectrophotométrie à 550 nm le cytochrome C réduit, en utilisant des tubes contenant du SOD comme témoins.
# tissu hépatique = test: Ischemia/reperfusion in short-term organ culture of rat liver, malonaldehyde by thiobarbituric acid reaction; assay type: cell-based, rats Wistar; conditions: 1 h, concentration inhibiting malonaldehyde production by 50%, 60 minutes ischemic anoxia, 60 minutes reoxygenation, read-out: CI50 (the source's name)
# Source text: as §1
# 3.- Ischémie/reperfusion dans une culture d'organe à court terme.
# Pour ces études, on a prélevé des échantillons de tissu dans des groupes de 10 rats Wistar mâles anesthésiés au pentobarbital sodique (60 mg par kg, i.p.). On a isolé les foies et on les a divisés en cinq échantillons d'environ 0,4 g qu'on a pesés et transférés dans des fioles d'Erlenmeyer de 50 ml bouchées contenant de la solution de Tris-Ringer saturée d'argon (anoxique).
# On a purgé à l'argon les fioles d'Erlenmeyer de 50 ml contenant les échantillons du tissu et 3,9 ml de tampon de Tris-Ringer traité à l'argon, on les a rebouchées et on les a conservées au bain-marie à 37°C sans agitation pendant 50 minutes pour provoquer l'ischémie. La subdivision du tissu et l'agitation ont été évitées à ce stade pour réduire au minimum la diffusion des métabolites depuis le tissu jusque dans le milieu, qui n'aurait pu se faire au cours d'une ischémie in vivo.
# Division du tissu et addition du médicament.
# Après 50 minutes d'ischémie, on a divisé les tissus avec des ciseaux d'ophtalmologie en fragments d'environ 1 mm de côté. Du fait que l'argon est plus dense que l'air, son déplacement hors de la fiole et son remplacement par l'oxygène sont restés minimaux pendant le découpage et l'addition ultérieure du médicament. Ensuite, on a ajouté 0,1 ml de tampon de Tris-Ringer contenant l'un des composés à évaluer ou de l'hydroxy- toluène butylé (HTB), pour arriver à la concentration finale souhaitée; on a sélectionné l'hydroxytoluène butylé du fait que c'est un antioxydant classique qui gêne la propagation en chaîne des radicaux. On a procédé à ces additions avec rapidité pour éviter d'introduire de l'oxygène. On a rebouché les fioles et on les a secouées modérément pour mélanger le tissu avec le médicament, puis on les a remises au bain-marie pendant 10 minutes pour la mise a l'équilibre avant la réoxygénation.
# Après 60 minutes d'anoxie ischémique, on a réoxygéné les fioles par barbotage vif d'oxygène gazeux à 100% dans les échantillons pendant 1 minute et par purge de la phase gazeuse avec de l'oxygène (de l'argon remplaçant l'oxygène à ce stade dans les expériences témoins d'ischémie sans réoxygénation). […]
SMILES,IC50 [1],other results
CCOC(=O)C1=C(C)NC(C)=C(C(=O)OC)C1c1cc(OC)c(O)c(OC)c1 (centres unmarked),–,activité comme capteur de radicaux libres (radicaux libres): intéressante activité; activité de blocage des canaux calciques (canaux calciques): pratiquement exempt
"CCOC(=O)C1=C(C)NC(C)=C(C(=O)OC)C1c1cc(C(C)(C)C)c(O)c(C(C)(C)C)c1 (centres unmarked) [Exemple 1, 2,6-Diméthyl-4-(4'-hydroxy-3',5'-di-t-butylphényl)-1,4-dihydropyridine-3,5-dicarboxylatede méthyle et d'éthyle]",780 nM,IC50 (neutrophiles humains): 10900 nM; IC50 (tissu hépatique): 170 nM
"CCOC(=O)C1=C(C)NC(C)=C(C(=O)OC(C)C)C1c1cc(C(C)(C)C)c(O)c(C(C)(C)C)c1 (centres unmarked) [Exemple 2, 2,6-diméthyl-4-(4'-hydroxy-3',5'-di-t-butylphényl)-1,4-dihydropyridine-3,5-dicarboxylate d'éthyle et d'isopropyle]",290 nM,IC50 (neutrophiles humains): 10200 nM; IC50 (tissu hépatique): 200 nM
"COC(=O)C1=C(C)NC(C)=C(C(=O)OC)C1c1cc(C(C)(C)C)c(O)c(C(C)(C)C)c1 [Exemple 3, 2,6-Diméthyl-4-(4'-hydroxy-3',5'-di-t-butylphényl)-1,4-dihydropyridine-3,5-dicarboxylatede diméthyle]",1250 nM,–
"CCOC(=O)C1=C(C)NC(C)=C(C(=O)OCC2COC(C)(C)O2)C1c1cc(C(C)(C)C)c(O)c(C(C)(C)C)c1 (centres unmarked) [Exemple 4, 2,6-diméthyl-4-(4'-hydroxy-3',5'-di-t-butylphényl)-1,4-dihydropyridine-3,5-dicarboxylate d'éthyle etde (2,2-diméthyl-1,3-dioxolan-4-yl)méthyle]",1250 nM,–
"CCOC(=O)C1=C(C)NC(C)=C(C(=O)OCC(O)CO)C1c1cc(C(C)(C)C)c(O)c(C(C)(C)C)c1 (centres unmarked) [Exemple 5, 2,6-diméthyl-4-(4'-hydroxy-3',5'-di-t-butyl-phényl)-1,4-dihydropyridine-3,5-dicarboxylate d'éthyle etde 2,3-dihydroxypropyle]",50000 nM,–
"CCOC(=O)C1=C(C)NC(C)=C(C(=O)OCCN(C)Cc2ccccc2)C1c1cc(C(C)(C)C)c(O)c(C(C)(C)C)c1 (centres unmarked) [Exemple 6, chlorhydratede 2,6-diméthyl-4-(4'-hydroxy-3',5'-di-t-butylphényl)-1,4-dihydropyridine-3,5-dicarboxylate d'éthyle etde 2-(N-méthyl-N-benzylamino)éthyle]",20000 nM,–
"CCOC(=O)C1=C(C)NC(C)=C(C(=O)OCCNC)C1c1cc(C(C)(C)C)c(O)c(C(C)(C)C)c1 (centres unmarked) [Exemple 7, chlorhydratede 2,6-diméthyl-4-(4'-hydroxy-3',5'-di-t-butylphényl)-1,4-dihydropyridine-3,5-dicarboxylate d'éthyle etde 2-(méthylamino)éthyle]",2500 nM,–
"CCOC(=O)C1=C(C)NC(C)=C(C(=O)OCc2ccccc2)C1c1cc(C(C)(C)C)c(O)c(C(C)(C)C)c1 (centres unmarked) [Exemple 8, 2,6-diméthyl-4-(4'-hydroxy-3',5'-di-t-butylphényl)-1,4-dihydropyridine-3,5-dicarboxylate d'éthyle etde benzyle]",1000 nM,–
"CCOC(=O)C1=C(C)NC(C)=C(C(=O)O)C1c1cc(C(C)(C)C)c(O)c(C(C)(C)C)c1 (centres unmarked) [Exemple 9, 2,6-diméthyl-4-(4'-hydroxy-3',5'-di-t-butylphényl)-5-carbéthoxy-3-carboxy-1,4-dihydropyridine]",2500 nM,–
"CCOC(=O)C1=C(C)NC(C)=C(C(=O)OCC(C)C)C1c1cc(C(C)(C)C)c(O)c(C(C)(C)C)c1 (centres unmarked) [Exemple 10, 2,6-diméthyl-4-(4'-hydroxy-3',5'-di-t-butylphényl)-1,4-dihydropyridine-3,5-dicarboxylate d'éthyle et d'isobutyle]",370 nM,IC50 (neutrophiles humains): 10500 nM; IC50 (tissu hépatique): 200 nM
"CC1=C(C(=O)OCC(C)C)C(c2cc(C(C)(C)C)c(O)c(C(C)(C)C)c2)C(C(=O)OCC(C)C)=C(C)N1 [Exemple 11, 2,6-diméthyl-4-(4'-hydroxy-3',5'-di-t-butylphényl)-1,4-dihydropyridine-3,5-dicarboxylatede diisobutyle]",1000 nM,–
"Cc1cc(C(C)(C)C)c(O)c(C(C)(C)C)c1 [HTB, hydroxytoluène butylé, reference compound]",1500 nM,IC50 (neutrophiles humains): 20000 nM; IC50 (tissu hépatique): 1750 nM
"Cc1c(C)c2c(c(C)c1O)CCC(C)(CCCC(C)CCCC(C)CCCC(C)C)O2 (stereo not drawn) [α-Tocophérol, reference compound]",15000 nM,–
